From patent US20120202799A1, “Condensed Azepine Derivatives As Bromodomain Inhibitors” (priority 2009, published 2012)

Target: T1, Bromodomain 2, 3 and 4 (BRD2, BRD3 and BRD4)
T1 construct: fused on or other part: six-His tag at the N-terminus
Experiment: Fluorescence Anisotropy Binding Assay
Design: species or system Human
Settings: result stated for one or more of BRD2, BRD3 and BRD4, target not specified per compound
Method: All data was normalized to the mean of 16 high and 16 low control wells on each plate. A four parameter curve fit of the following form was then applied:
y=a+((b−a)/(1+(10̂x/10̂c)̂d)
The His-tagged Bromodomain was extracted from E. coli cells using 0.1 mg/ml lysozyme and sonication. […] Further purification was completed by Superdex 200 prep grade size exclusion column. Purified protein was stored at −80 C in 20 mM HEPES pH 7.5 and 100 mM NaCl.

Row | SMILES | pIC50 in one or more of the BRD2, BRD3 and BRD4 assays
1 | Cc1nnc2n1-c1ccccc1C(c1ccccc1)=NC2NC(=O)OCc1ccco1 (centres unmarked) [Example 44, 2-furanylmethyl (1-methyl-6-phenyl-4H-[1,2,4]triazolo[4,3-a][1,4]benzodiazepin-4-yl)carbamate] | ≥ 5.0

Tested on: TNFα levels in LPS stimulated whole blood
Experiment: LPS Stimulated Whole Blood Measuring TNFα Levels Assay
Assay type: cell-based
Settings: LPS final concentration 200 ng/ml, 24 hours at 37 degrees, TNFα by immunoassay, read-out: pIC50 (TNFα levels) (converted)
Method: Activation of monocytic cells by agonists of toll-like receptors such as bacterial lipopolysaccharide (LPS) results in production of key inflammatory mediators including TNFα. Such pathways are widely considered to be central to the pathophysiology of a range of auto-immune and inflammatory disorders.
Compounds to be tested are diluted to give a range of appropriate concentrations and 1 ul of the dilution stocks is added to wells of a 96 plate. Following addition of whole blood (130 μl) the plates are incubated at 37 degrees (5% CO2) for 30 min before the addition of 10 ul of 2.8 ug/ml LPS, diluted in complete RPMI 1640 (final concentration=200 ng/ml), to give a total volume of 140 μl per well. After further incubation for 24 hours at 37 degrees, 140 μl of PBS are added to each well. The plates are sealed, shaken for 10 minutes and then centrifuged (2500 rpm×10 min). 100 μl of the supernatant are removed and TNFα levels assayed by immunoassay (typically by MesoScale Discovery technology) either immediately or following storage at −20 degrees. Dose response curves for each compound was generated from the data and an IC50 value was calculated.

Row | SMILES | IC50 [µM]
2 | COc1ccc2cc(C(=O)NC3N=C(c4ccccc4)c4ccccc4-n4c(C)nnc43)[nH]c2c1 (centres unmarked) [Example 53, 6-(methyloxy)-N-(1-methyl-6-phenyl-4H-[1,2,4]-triazolo[4,3-a][1,4]benzodiazepin-4-yl)-1H-indole-2-carboxamide] | ≤ 10
3 | Cc1nnc2n1-c1ccccc1C(c1ccccc1)=NC2NC(=O)OCc1ccccc1 (single isomer, unassigned; (+)) [Example 27, (+)-phenylmethyl (1-methyl-6-phenyl-4H-[1,2,4]triazolo[4,3-a][1,4]benzodiazepin-4-yl)carbamate] | ≤ 10
4 | Cc1nnc2n1-c1ccccc1C(c1ccccc1)=NC2NC(=O)/C=C/c1ccccc1 (centres unmarked) [Example 64, (2E)-N-(1-methyl-6-phenyl-4H-[1,2,4]triazolo[4,3-a][1,4]benzodiazepin-4-yl)-3-phenyl-2-propenamide] | ≤ 10
5 | CCOC(=O)NC1N=C(c2ccc(Cl)cc2)c2ccccc2-n2c(C)nnc21 (single isomer, unassigned; (+)) [Example 28, (+)-ethyl [6-(4-chlorophenyl)-1-methyl-4H-[1,2,4]triazolo[4,3-a][1,4]benzodiazepin-4-yl]carbamate] | ≤ 10
6 | CCOC(=O)NC1N=C(c2ccccc2)c2ccccc2-n2c(C)nnc21 (single isomer, unassigned; (+)) [Example 32, (+)-ethyl 1-methyl-6-phenyl-4H-[1,2,4]triazolo[4,3-a][1,4]benzodiazepin-4-ylcarbamate] | ≤ 10
7 | Cc1nnc2n1-c1ccccc1C(c1ccccc1)=NC2NC(=O)/C=C/c1ccc(F)cc1 (centres unmarked) [Example 65, (2E)-3-(4-fluorophenyl)-N-(1-methyl-6-phenyl-4H-[1,2,4]triazolo[4,3-a][1,4]benzodiazepin-4-yl)-2-propenamide] | ≤ 10

Tested on: not given
Experiment: not given
Settings: not given

Row | melting point [°C] | SMILES
8 | 160 to 170 | Cc1nnc2n1-c1ccc(Br)cc1C(c1ccccc1F)=NC2NC(=O)OCc1ccccc1 (centres unmarked) [Example 17, phenylmethyl [8-bromo-6-(2-fluorophenyl)-1-methyl-4H-[1,2,4]triazolo[4,3-a][1,4]benzodiazepin-4-yl]carbamate]
9 | > 260 | Cc1nnc2n1-c1ccccc1C(c1ccccc1)=NC2NC(=O)Nc1ccccc1 (centres unmarked) [Example 70, N-(1-methyl-6-phenyl-4H-[1,2,4]triazolo[4,3-a][1,4]benzodiazepin-4-yl)-N′-phenyl urea]
10 | 225 | COc1ccc(C2=NC(NC(=O)Nc3ccc(C(=O)c4ccccc4)cc3)c3nnc(C)n3-c3ccccc32)cc1 (centres unmarked)

Row | SMILES | melting point [°C]
11 | COc1ccc2cc(C(=O)NC3N=C(c4ccccc4)c4ccccc4-n4c(C)nnc43)[nH]c2c1 (centres unmarked) [Example 53, 6-(methyloxy)-N-(1-methyl-6-phenyl-4H-[1,2,4]-triazolo[4,3-a][1,4]benzodiazepin-4-yl)-1H-indole-2-carboxamide] | 160 to 170
